Measured values taken from US20070155782A1, “Nk-1 receptor antagonists anesthesia recovery” (priority 2004, published 2007).
“And” between values parts separate entries of the source, which are not always exact repeats. Identical values can stand only once.

What was measured:
geriatric beagles = experiment: Experiment B: recovery from general anesthesia in beagle dogs, 0.5 mg/kg compound of Formula Ia; assay type: in vivo
Protocol: (§1) The patients utilized in the study were maintained in standard facilities with appropriate heating and ventilation. All dogs were placed under general anesthesia. The duration of anesthesia, time to extubation and time to sternal recumbency were recorded. Also noted were behaviors indicative of dysphoria such as vocalization and purposeless movement. A visual analog scale (“VAS”) was used to score the “quality” of the entire recovery period.
(§2) As used herein, the term “duration of anesthesia” is the time in minutes elapsed between intubation and cessation of anesthetic gases.
(§3) As used herein, the term “time to extubation” is the time in minutes elapsed between cessation of anesthetic gases and the need for removal of the endotracheal tube due to spontaneous swallowing.
(§4) As used herein, the term “time to Sternal Recumbency” is the time in minutes elapsed between cessation of anesthetic gases and the time the dog could physically place and maintain itself in sternal recumbency.
(§5) Evaluation of Recovery Period. A visual analog scale (“VAS”) was used to score the “quality” of the recovery period (0=smooth recovery, 10=rough recovery). Factors considered included, but were not limited to, vocalization, purposeless movement as well as the subjective degree of dysphoria experienced by the dog. The study director, who was blinded to treatment assignments, assigned recovery scores.
(§6) Statistical Analysis. Data from two trials conducted according to the above procedure were combined for analysis purposes. The data in the following Tables and Figures are mean±standard deviation. Duration of anesthesia, time to extubation and time to sternal recumbency data were analyzed using a paired t-test for means in Excel. Recovery VAS data were analyzed using SAS Statistical Software.
Fifteen experimental geriatric beagles, weighing 9-16 kilograms and undergoing anesthesia for dental prophylaxis, were used in this study. All dogs were fasted overnight prior to anesthesia. Experimental dogs were subcutaneously administered 0.5 mg/kg compound of Formula Ia at the time of pre-anesthetic medication. Control dogs received no treatment in addition to routine pre-anesthesia medications. The duration of anesthesia, time to extubation and time to sternal recumbency were recorded.
(§7) Preparation of 0.5 mg/kg compound of Formula Ia dose: Formulations were prepared by dissolving the compound of Formula Ia (10 mg/mL) and SBE-CD (10%) in distilled water to form a solution. The solution was sonicated to facilitate complete dissolution and filtered through a 0.22 μm Millipore syringe top filter prior to injection.
Administration of Dose: Solutions of compound of Formula Ia (0.5 mg/kg) were administered by subcutaneous injection.
Anesthetic Protocol: General anesthesia was induced and maintained using the following protocol:
(1) Preanesthetic administration: the Experimental patients were treated with subcutaneous administration of a dose of compound of Formula Ia, as prepared above. Both experimental and control patients were administered glycopyrrolate (0.01 mg/kg SC), butorphanol (0.1 mg/kg SC) and penicillin (30,000 units/kg SC)
(2) During the induction period, the patients were administered intravenous methohexital (8 mg/kg IV).
(3) The patients were then maintained with inhalant isoflurane at concentrations ranging from 0.5 to 3%.
The patients were monitored continuously during the anesthetic and recovery periods.

mature mongrel dogs = experiment: Experiment A: anesthetic recovery in dogs, 1.0 mg/kg compound of Formula Ia vs saline control; assay type: in vivo
Protocol: as §1, §2, §3, §4, §5, §6
Experimental mature mongrel dogs, both male and female, weighing about 16-26 kilograms, were subcutaneously administered 1.0 mg/kg compound of Formula Ia one hour prior to preanesthetic administration. Control dogs were subcutaneously administered an equivalent volume of saline solution one hour prior to preanesthetic administration. The duration of anesthesia, time to extubation and time to sternal recumbency were recorded. The patients were monitored continuously during the anesthetic and recovery periods.
as §7, with “1.0” for “0.5”
Administration of Dose: Solutions of compound of Formula Ia (1.0 mg/kg) or saline placebo (0.1 mL/kg) were administered by subcutaneous injection (“SC”).
Anesthetic Protocol: General anesthesia was induced using the following protocol: (1) One hour prior to preanesthetic administration, the patients were treated with subcutaneous administration of either a dose of compound of Formula Ia, as prepared above, or the saline control (0.1 mL/kg).
(2) Thirty (30) minutes prior to induction (preanesthetic), the patients were administered glycopyrrolate (0.01 mg/kg SC) and butorphanol (0.1 mg/kg SC).
(3) During the induction period, the patients were administered intravenous methohexital (8 mg/kg IV).
(4) The patients were then maintained with inhaled isoflurane at concentrations ranging from 0.5 to 3%.

[1] = 0.5 mg/kg SC at time of pre-anesthetic medication, beagle dogs
[2] = 1 mg/kg SC one hour prior to preanesthetic, individual dogs
[3] = 1 mg/kg SC, Mean ± SD of 12 dogs

**Q.** COc1ccc(C(C)(C)C)cc1CN[C@H]1C2CCN(CC2)[C@H]1C(c1ccccc1)c1ccccc1 [Compound of Formula Ia, (2S,3S)-2-benzhydryl-N-(5-tert-butyl-2-methoxybenzyl)quinuclidin-3-amine] was tested. Which “Time to extubation, experimental vs control group” value (geriatric beagles; 0.5 mg/kg SC) did it give?
**A.** no statistical difference

**Q.** And the “Time to sternal recumbency, experimental vs control group” value (geriatric beagles; 0.5 mg/kg SC)?
**A.** no statistical difference

**Q.** What about the “Visual analog score for smoothness of recovery period, experimental vs control group” value (geriatric beagles; 0.5 mg/kg SC) of the same compound?
**A.** no statistical difference

**Q.** And the “Time to Extubation Mean ± SD” value (geriatric beagles; [1])?
**A.** 5.00 ± 4.47 min

**Q.** What about the “Time to Sternal Recumbency Mean ± SD” value (geriatric beagles; [1]) of the same compound?
**A.** 10.86 ± 10.67 min

**Q.** And the “Subjective appearance during the recovery period vs control dogs” value (geriatric beagles; 0.5 mg/kg SC during the preoperative period)?
**A.** tended to look less anxious

**Q.** And the “Recovery Score Mean ± SD” value (geriatric beagles; 0.5 mg/kg SC, VAS 0=smooth, 10=rough, beagle dogs)?
**A.** 3.46 ± 1.54 cm

**Q.** And the “Treated dogs that received visual analog scores of less than 5 cm” value (geriatric beagles; 0.5 mg/kg SC, control dogs 4 out of 8)?
**A.** 7 out of 7

**Q.** And the “Time to extubation compared with saline group” value (mature mongrel dogs; 1 mg/kg SC)?
**A.** similar

**Q.** And the “Time to sternal recumbency compared with saline group” value (mature mongrel dogs; 1 mg/kg SC)?
**A.** similar

**Q.** And the “Time to Extubation” value (mature mongrel dogs; [2])?
**A.** 2 min (4×) and 1 min (2×) and 3 min and 5 min (3×) and 4 min (2×)

**Q.** And the “Time to Sternal Recumbency” value (mature mongrel dogs; [2])?
**A.** 4 min and 3 min (4×) and 6 min (2×) and 1 min and 11 min and 9 min (2×) and 7 min

**Q.** And the “Time to Extubation” value (mature mongrel dogs; [3])?
**A.** 3 ± 2 min

**Q.** What about the “Time to Sternal Recumbency” value (mature mongrel dogs; [3]) of the same compound?
**A.** 5 ± 3 min

**Q.** And the “Recovery Quality” value (mature mongrel dogs; 1 mg/kg SC, VAS 0=smooth recovery, 10=rough recovery, individual dogs)?
**A.** 7.1 cm and 1.4 cm and 2.1 cm and 0.7 cm and 0.9 cm and 3.9 cm and 0.2 cm and 1.1 cm and 1.8 cm and 1.9 cm and 4.7 cm and 2.4 cm

**Q.** What about the “Recovery Quality” value (mature mongrel dogs; 1 mg/kg SC, VAS 0=smooth, 10=rough, Mean ± SD of 12 dogs, p=0.02 vs saline) of the same compound?
**A.** 2.3 ± 2 cm

**Q.** What about the “Recovery scores compared with saline” value (mature mongrel dogs; 1 mg/kg SC, p=0.02) of the same compound?
**A.** significantly lower recovery scores

**Q.** And the “Recovery VAS scores lower than saline controls” value (mature mongrel dogs; 1 mg/kg SC, vs saline controls)?
**A.** 43.9%
